Source: patent US20240382629A1, “HETEROBIVALENT AND HOMOBIVALENT AGENTS TARGETING FIBROBLAST ACTIVATION PROTEIN ALPHA AND/OR PROSTATE-SPECIFIC MEMBRANE ANTIGEN” (The Johns Hopkins University, priority 2021, published 2024)
Values joined by “and” are separate entries in the source; they are usually repeats but may differ in a detail not shown here. Identical values can stand only once.

Test system: U87 tumor
Assay: Biodistribution ([^18F]JHU1221823), carrier / specific activity study
Assay type: in vivo, mouse
Settings: individual mouse
Text: Biodistribution of Representative Compounds

[1] = + 0.05 nmole carrier, 60 min post injection
[2] = + 0.1 nmole carrier, 60 min post injection
[3] = + 0.25 nmole carrier, 60 min post injection
[4] = NOD/SCID, U87 tumor, Carrier 350 (350 mCi/μmol), 60 min post injection
[5] = NOD/SCID, U87 tumor, Carrier 700, 60 min post injection

N#C[C@@H]1CCCN1C(=O)CNC(=O)c1ccnc2ccc(OCCCNC(=O)CCOCCOCCOCCOCCNC(=O)[C@H](CCCCNC(=O)c3ccc([18F])nc3)NC(=O)CN3CCN(CC(=O)O)CCN(CC(=O)O)CCN(CC(=O)O)CC3)cc12 [[^18F]JHU1221823]
Bladder % ID/g (+ 0.01 nmole carrier): 1.82 % ID/g and 2.18 % ID/g
Blood % ID/g (+ 0.01 nmole carrier): 11.19 % ID/g and 11.39 % ID/g
Brain % ID/g (+ 0.01 nmole carrier): 0.32 % ID/g and 0.28 % ID/g
Fat % ID/g (+ 0.01 nmole carrier): 0.23 % ID/g and 0.44 % ID/g
Femur % ID/g (+ 0.01 nmole carrier): 3.05 % ID/g and 4.01 % ID/g
Heart % ID/g (+ 0.01 nmole carrier): 4.74 % ID/g and 4.50 % ID/g
Kidney % ID/g (+ 0.01 nmole carrier): 2.82 % ID/g and 3.11 % ID/g
Large intestine % ID/g (+ 0.01 nmole carrier): 1.60 % ID/g and 1.63 % ID/g
Liver % ID/g (+ 0.01 nmole carrier): 2.78 % ID/g and 3.40 % ID/g
Lung % ID/g (+ 0.01 nmole carrier): 6.08 % ID/g and 6.21 % ID/g
Muscle % ID/g (+ 0.01 nmole carrier): 2.03 % ID/g and 1.73 % ID/g
Pancreas % ID/g (+ 0.01 nmole carrier): 4.01 % ID/g and 4.14 % ID/g
Salivary gland % ID/g (+ 0.01 nmole carrier): 7.47 % ID/g and 7.48 % ID/g
Small intestine % ID/g (+ 0.01 nmole carrier): 2.22 % ID/g and 2.17 % ID/g
Spleen % ID/g (+ 0.01 nmole carrier): 1.88 % ID/g and 2.13 % ID/g
Stomach % ID/g (+ 0.01 nmole carrier): 1.33 % ID/g and 1.65 % ID/g
Tumor % ID/g (+ 0.01 nmole carrier): 1.88 % ID/g and 2.86 % ID/g
Bladder % ID/g [1]: 6.14 % ID/g and 2.43 % ID/g
Blood % ID/g [1]: 7.42 % ID/g and 7.67 % ID/g
Brain % ID/g [1]: 0.20 % ID/g and 0.21 % ID/g
Fat % ID/g [1]: 0.94 % ID/g and 0.61 % ID/g
Femur % ID/g [1]: 2.83 % ID/g and 3.67 % ID/g
Heart % ID/g [1]: 3.03 % ID/g and 3.04 % ID/g
Kidney % ID/g [1]: 2.02 % ID/g and 2.55 % ID/g
Large intestine % ID/g [1]: 1.48 % ID/g and 1.58 % ID/g
Liver % ID/g [1]: 1.92 % ID/g and 2.34 % ID/g
Lung % ID/g [1]: 4.05 % ID/g and 4.16 % ID/g
Muscle % ID/g [1]: 1.47 % ID/g and 2.20 % ID/g
Pancreas % ID/g [1]: 4.01 % ID/g and 6.69 % ID/g
Salivary gland % ID/g [1]: 10.22 % ID/g and 11.63 % ID/g
Small intestine % ID/g [1]: 1.46 % ID/g and 2.18 % ID/g
Spleen % ID/g [1]: 1.37 % ID/g and 1.62 % ID/g
Stomach % ID/g [1]: 1.07 % ID/g and 1.48 % ID/g
Tumor % ID/g [1]: 2.59 % ID/g and 4.26 % ID/g
Bladder % ID/g [2]: 1.62 % ID/g and 1.87 % ID/g
Blood % ID/g [2]: 3.88 % ID/g and 4.32 % ID/g
Brain % ID/g [2]: 0.08 % ID/g and 0.17 % ID/g
Fat % ID/g [2]: 2.17 % ID/g and 1.13 % ID/g
Femur % ID/g [2]: 3.44 % ID/g and 4.00 % ID/g
Heart % ID/g [2]: 1.80 % ID/g and 1.87 % ID/g
Kidney % ID/g [2]: 2.03 % ID/g and 2.00 % ID/g
Large intestine % ID/g [2]: 2.91 % ID/g and 1.79 % ID/g
Liver % ID/g [2]: 1.01 % ID/g and 1.30 % ID/g
Lung % ID/g [2]: 2.31 % ID/g and 2.83 % ID/g
Muscle % ID/g [2]: 1.69 % ID/g and 2.25 % ID/g
Pancreas % ID/g [2]: 4.18 % ID/g and 5.17 % ID/g
Salivary gland % ID/g [2]: 7.28 % ID/g and 9.35 % ID/g
Small intestine % ID/g [2]: 1.66 % ID/g and 1.63 % ID/g
Spleen % ID/g [2]: 0.91 % ID/g and 1.01 % ID/g
Stomach % ID/g [2]: 0.89 % ID/g and 1.12 % ID/g
Tumor % ID/g [2]: 5.48 % ID/g and 4.73 % ID/g
Bladder % ID/g [3]: 3.04 % ID/g and 1.98 % ID/g
Blood % ID/g [3]: 1.76 % ID/g and 2.03 % ID/g
Brain % ID/g [3]: 0.08 % ID/g
Fat % ID/g [3]: 0.65 % ID/g and 0.37 % ID/g
Femur % ID/g [3]: 3.97 % ID/g and 4.56 % ID/g
Heart % ID/g [3]: 0.91 % ID/g
Kidney % ID/g [3]: 1.70 % ID/g and 2.15 % ID/g
Large intestine % ID/g [3]: 0.62 % ID/g and 0.68 % ID/g
Liver % ID/g [3]: 0.73 % ID/g and 0.77 % ID/g
Lung % ID/g [3]: 1.17 % ID/g and 1.57 % ID/g
Muscle % ID/g [3]: 1.32 % ID/g and 1.19 % ID/g
Pancreas % ID/g [3]: 2.11 % ID/g and 1.42 % ID/g
Salivary gland % ID/g [3]: 3.78 % ID/g and 2.85 % ID/g
Small intestine % ID/g [3]: 0.75 % ID/g and 1.07 % ID/g
Spleen % ID/g [3]: 0.44 % ID/g and 0.48 % ID/g
Stomach % ID/g [3]: 0.61 % ID/g and 0.77 % ID/g
Tumor % ID/g [3]: 3.93 % ID/g and 3.11 % ID/g
Bladder % ID/g [4]: 2.09 % ID/g and 6.57 % ID/g
Blood % ID/g [4]: 3.99 % ID/g and 4.29 % ID/g
Brain % ID/g [4]: 0.10 % ID/g and 0.09 % ID/g
Fat % ID/g [4]: 0.89 % ID/g and 0.82 % ID/g
Femur % ID/g [4]: 3.67 % ID/g and 3.18 % ID/g
Heart % ID/g [4]: 2.25 % ID/g and 2.02 % ID/g
Kidney % ID/g [4]: 2.00 % ID/g and 2.27 % ID/g
Large intestine % ID/g [4]: 2.18 % ID/g and 1.97 % ID/g
Liver % ID/g [4]: 1.71 % ID/g and 1.81 % ID/g
Lung % ID/g [4]: 2.51 % ID/g and 2.98 % ID/g
Muscle % ID/g [4]: 2.02 % ID/g and 2.04 % ID/g
Pancreas % ID/g [4]: 10.66 % ID/g and 9.69 % ID/g
Salivary gland % ID/g [4]: 9.63 % ID/g and 9.35 % ID/g
Small intestine % ID/g [4]: 2.86 % ID/g and 1.91 % ID/g
Spleen % ID/g [4]: 1.60 % ID/g and 1.01 % ID/g
Stomach % ID/g [4]: 1.47 % ID/g
Tumor % ID/g [4]: 8.22 % ID/g and 9.06 % ID/g
Bladder % ID/g [5]: 8.20 % ID/g
Blood % ID/g [5]: 5.82 % ID/g
Brain % ID/g [5]: 0.16 % ID/g
Fat % ID/g [5]: 0.90 % ID/g
Femur % ID/g [5]: 2.41 % ID/g
Heart % ID/g [5]: 3.48 % ID/g
Kidney % ID/g [5]: 2.45 % ID/g
Large intestine % ID/g [5]: 2.26 % ID/g
